Measured values as given in PubChem BioAssay AID977605 (Broad Institute, 2014).
Activity calls are given as the source filed them.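 The calls were made as follows: active = fitted curve reaches 40% activation below the top valid tested dose, in every test run; inconclusive = test runs disagree on the call; inactive = the rest, including effects opposite to the expected direction.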

assay: E-selectin inducers in HUVECs, dose response, imaging, HUVEC, cherry-picked samples (AID 977605); conditions: HUVEC E-selectin immunostaining, at 19.5 µM (top of the series), percent of TNF-alpha response over vehicle;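 also: signal is the share of imaged cells scored positive for E-selectin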

| SMILES | activation |
| --- | --- |
| COc1ccc(C(=O)N(CCc2ccccc2)Cc2ccccc2)c(OC)n1 | -0.136% (inactive) |
| O=S1(=O)CC(N2CCN(Cc3ccccc3F)CC2)CN1Cc1cn(Cc2ccccc2)nn1 (stereo not drawn) | 0.129% (inactive) |
| COc1ccc(CN(C)C[C@@H]2Oc3c(NC(=O)Nc4ccc(F)cc4)cccc3C(=O)N([C@@H](C)CO)C[C@H]2C)cc1 | 8.09% (inactive) |
| COc1ccc(S(=O)(=O)N(C)C[C@@H]2Oc3ccc(NS(=O)(=O)c4c(C)noc4C)cc3C(=O)N([C@@H](C)CO)C[C@H]2C)cc1 | -0.096% (inactive) |
| CC(C)CC#Cc1ccc2c(c1)O[C@H](CN(C)Cc1ccncc1)[C@H](C)CN([C@@H](C)CO)S2(=O)=O | -0.038% (inactive) |
| COc1ccc(S(=O)(=O)N(C)C[C@H]2Oc3ccc(NC(=O)c4ccncc4)cc3C(=O)N([C@@H](C)CO)C[C@@H]2C)cc1 | -0.047% (inactive) |
| CNC[C@@H]1Oc2ccc(NS(C)(=O)=O)cc2C(=O)N([C@@H](C)CO)C[C@@H]1C | -0.177% (inactive) |
| C[C@H](CO)N1C[C@H](C)[C@@H](CN(C)Cc2ccc(C(F)(F)F)cc2)Oc2c(NS(C)(=O)=O)cccc2C1=O | -0.122% (inactive) |
| C[C@H]1CN([C@@H](C)CO)C(=O)c2cc(NC(=O)CCCCCC(=O)Nc3ccccc3N)ccc2O[C@H]1CN(C)C(=O)Nc1ccc(F)cc1 | 0.137% (inactive) |
| Cc1ccc(CSc2nc3[nH]ncc3c(=O)[nH]2)cc1 | 24.6% (inactive) |
| COc1ccc([C@H]2CC(=O)C[C@@H](CCn3nnc4ccccc43)O2)cc1 | 0.021% (inactive) |
| COc1ccc(NC(=O)Nc2cccc3c2O[C@@H](CN(C)C(=O)NC2CCCCC2)[C@H](C)CN([C@H](C)CO)C3=O)cc1 | 0.507% (inactive) |
| CCOC(=O)[C@]12CCCC=C1N(CCC1=CCCCC1)C(=O)[C@H](CC(=O)NCCC(C)C)C2 | 7.1% (inactive) |
| CC(C)NC(=O)Nc1ccc2c(c1)C(=O)N([C@@H](C)CO)C[C@H](C)[C@@H](CN(C)Cc1ccc(C(F)(F)F)cc1)O2 | -0.03% (inactive) |
| COc1ccc(OC)c(NC(=O)c2ccc(CSc3ncccn3)cc2)c1 | 0.128% (inactive) |
| O=C(C1CCCN(c2nnc(-n3cccc3)s2)C1)N1CCN(c2ccccc2)CC1 (stereo not drawn) | 0.14% (inactive) |
| COc1ccccc1CNC(=O)[C@@H]1CCCN1S(=O)(=O)c1ccc(Cl)cc1 | -0.15% (inactive) |
| C[C@@H]1CN([C@H](C)CO)C(=O)c2cc(C#Cc3cccc(F)c3)cnc2O[C@H]1CN(C)C(=O)C1CCC1 | 0.008% (inactive) |
| Cc1cc(C)cc(NC(=O)Cc2ccc(NC3=NC4CS(=O)(=O)CC4S3)cc2)c1 (stereo not drawn) | 0.105% (inactive) |
| C[C@@H]1CN([C@H](C)CO)C(=O)c2cc(NC(=O)Cc3cn(C)c4ccccc34)ccc2O[C@H]1CN(C)Cc1ccc(Cl)c(Cl)c1 | 4.38% (inactive) |
| C[C@@H]1CN([C@@H](C)CO)C(=O)Cc2cc(NS(C)(=O)=O)ccc2O[C@H]1CN(C)Cc1ccncc1 | -0.007% (inactive) |
| C[C@H](CO)N1C[C@H](C)[C@H](CN(C)S(=O)(=O)c2ccccc2)Oc2ccc(NC(=O)Nc3ccc(F)cc3)cc2CC1=O | 0.322% (inactive) |
| C[C@@H]1CN([C@@H](C)CO)C(=O)c2cc(NC(=O)NC3CCCCC3)ccc2O[C@@H]1CN(C)S(=O)(=O)c1ccc(Cl)cc1 | -0.037% (inactive) |
| C[C@H](CO)N1C[C@H](C)[C@H](CN(C)Cc2ccc(Oc3ccccc3)cc2)Oc2c(NS(C)(=O)=O)cccc2C1=O | 3.2% (inactive) |
| CC(=O)NC1C(=O)N(CCN2CCOCC2)c2ccc(F)cc21 (stereo not drawn) | -0.179% (inactive) |

| SMILES | activation |
| --- | --- |
| CC(=O)N(C)C[C@@H]1Oc2cc(C#Cc3ccccn3)ccc2S(=O)(=O)N([C@H](C)CO)C[C@@H]1C | -0.123% (inactive) |
| Cc1noc(C)c1S(=O)(=O)N(C)C[C@@H]1Oc2ccc(NC(=O)Nc3ccc(F)cc3)cc2CC(=O)N([C@H](C)CO)C[C@H]1C | -0.155% (inactive) |
| COc1ccc(-c2nnc3n2CCCCC3)cc1OC | 0.027% (inactive) |
| Brc1cnc2nc(SCc3nc4ccccc4[nH]3)[nH]c2c1 | 1.19% (inactive) |
| COc1ccc(NS(=O)(=O)c2ccc3c(c2)CCCN3C(C)=O)cc1 | -0.06% (inactive) |
| C[C@@H]1CN([C@H](C)CO)C(=O)c2cccc(NC(=O)Nc3ccc(F)cc3)c2O[C@H]1CN(C)C(=O)NC1CCCCC1 | 0.496% (inactive) |
| CC(C)CC#Cc1cnc2c(c1)C(=O)N([C@H](C)CO)C[C@@H](C)[C@H](CN(C)C(=O)c1ccc3c(c1)OCO3)O2 | -0.021% (inactive) |
| Cc1ccc(NCc2n[nH]c(=S)n2-c2ccccc2)cc1 | 1.12% (inactive) |
| COc1ccc(NC(=O)N(C)C[C@H]2Oc3ccc(NC(=O)c4ccncc4)cc3CC(=O)N([C@H](C)CO)C[C@@H]2C)cc1 | -0.048% (inactive) |
| CCOC(=O)c1sc(NC(=O)CN2C(=O)C3CC=CCC3C2=O)nc1C (stereo not drawn) | 0.503% (inactive) |
| CCC(CC)NC(=O)Nc1ccc(F)c(Cl)c1 | 0.516% (inactive) |
| C[C@H]1CN([C@@H](C)CO)C(=O)Cc2cc(NS(=O)(=O)c3ccc(F)cc3)ccc2O[C@@H]1CN(C)S(=O)(=O)c1ccc(Cl)cc1 | -0.047% (inactive) |
| COc1ccc(OCC(O)CNC(=O)c2ccccc2)cc1 (stereo not drawn) | 4.38% (inactive) |
| COc1ccc(NC(=O)c2cc(S(=O)(=O)N3CCCCC3)c[nH]2)cc1 | 0.335% (inactive) |
| O=C(CCCn1c(=O)c2ccccc2n(CC(=O)N2CCN(c3ccccc3)CC2)c1=O)NCc1ccco1 | -0.084% (inactive) |
| CCC(=O)N(C)C[C@H]1Oc2ncc(Br)cc2C(=O)N([C@@H](C)CO)C[C@H]1C | -0.195% (inactive) |
| CCNC(=O)CC1C(=O)N(c2ccc(OC)cc2)C(=O)N1CCOC (stereo not drawn) | -0.131% (inactive) |
| COC(=O)c1cc(S(=O)(=O)NCC2CCN(CCc3cccs3)CC2)c[nH]1 | 0.021% (inactive) |
| C[C@@H]1CN([C@@H](C)CO)S(=O)(=O)c2ccc(C#Cc3ccccc3)cc2O[C@@H]1CN(C)CC1CC1 | 0.541% (inactive) |
| Cc1c(C(=O)N2CCN(S(=O)(=O)c3cc(F)ccc3F)CC2)oc2ccccc12 | -0.021% (inactive) |
| CNC[C@H]1Oc2ccc(NS(=O)(=O)c3ccc(OC)cc3)cc2CC(=O)N([C@@H](C)CO)C[C@@H]1C | -0.213% (inactive) |
| C[C@H]1CN([C@@H](C)CO)C(=O)c2cc(N(C)C)ccc2O[C@H]1CN(C)Cc1ccc(C(=O)O)cc1 | 0.082% (inactive) |
| COc1ccc(S(=O)(=O)Nc2ccc3c(c2)C(=O)N([C@H](C)CO)C[C@H](C)[C@@H](CN(C)C(=O)Nc2cccc4ccccc24)O3)cc1 | 0.023% (inactive) |
| COc1ccc(S(=O)(=O)N(C)C[C@@H]2Oc3ccc(NC(=O)c4ccncc4)cc3C(=O)N([C@H](C)CO)C[C@H]2C)cc1 | -0.082% (inactive) |
| C[C@@H]1CN([C@H](C)CO)C(=O)Cc2cc(NC(=O)Nc3ccc4c(c3)OCO4)ccc2O[C@H]1CN(C)Cc1ccc(Cl)c(Cl)c1 | 0.291% (inactive) |

same assay, conditions: HUVEC E-selectin immunostaining, at 21 µM (top of the series), percent of TNF-alpha response over vehicle

| SMILES | activation |
| --- | --- |
| COc1ccc(NC(=O)N(C)C[C@@H]2Oc3ccc(NC(=O)c4ccncc4)cc3CC(=O)N([C@@H](C)CO)C[C@@H]2C)cc1 | -0.09% (inactive) |
| C[C@H]1CN([C@@H](C)CO)C(=O)c2cccc(NS(=O)(=O)c3cn(C)cn3)c2O[C@@H]1CN(C)C(=O)Nc1ccc(F)cc1 | -0.136% (inactive) |
| C[C@@H]1CN([C@@H](C)CO)C(=O)c2cc(NC(=O)CCN3CCOCC3)ccc2O[C@H]1CN(C)Cc1ccncc1 | -0.05% (inactive) |
